Measurements as given in patent US12404295B2, “(Hetero)aryl-methyl-thio-beta-D-galactopyranoside derivatives” (Idorsia Pharmaceuticals Ltd, priority 2019, dated 2025).
pIC50: −log10 of the molar value. Where two headings read alike, the source gives them in different places.

What was measured:
[1] = target: human Gal-3 (hGal-3) (Homo sapiens (Human), UniProt P17931); assay: competitive binding assay: biotinylated hGal-3 binding to microplate-adsorbed asialofetuin (ASF)
Procedure, shortened: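 Peroxidase activity developed with ABTS measures the biotinylated hGal-3 remaining on the asialofetuin-coated surface after competition with test compounds. Incubation ran 3 h at 4 °C, followed by 1 h with streptavidin-peroxidase at 80 ng/mL.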

[2] = target: human Gal-1 (hGal-1) (Homo sapiens (Human), UniProt P09382); assay: competitive binding assay: biotinylated hGal-1 binding to microplate-adsorbed asialofetuin (ASF); conditions: Table 15; read-out: IC50 (Galectin-1 inhibition)
Procedure, shortened: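 Biotinylated human Gal-1 (300-1000 ng/mL) competes with serially diluted compound for binding to ASF-coated plates, 3 h at 4° C. Bound protein detected with streptavidin-peroxidase and ABTS substrate (spectrophotometric). IC50 given as mean of several measurements.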

[3] = Gal-3 inhibition, binding of biotinylated hGal-3 to ASF, mean values, read-out: IC50
[4] = Table 5, read-out: IC50 (Gal-3 inhibition)
[5] = Table 11, read-out: IC50 (Gal-3 inhibition)

Sequence of human Gal-3 (hGal-3) (P17931 whole entry): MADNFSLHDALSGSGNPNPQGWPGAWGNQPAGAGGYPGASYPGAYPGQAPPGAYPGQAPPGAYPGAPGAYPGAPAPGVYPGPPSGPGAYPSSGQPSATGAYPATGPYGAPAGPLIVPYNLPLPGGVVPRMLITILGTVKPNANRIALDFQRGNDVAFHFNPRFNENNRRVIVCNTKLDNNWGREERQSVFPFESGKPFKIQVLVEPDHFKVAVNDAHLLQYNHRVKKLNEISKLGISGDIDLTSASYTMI
Sequence of human Gal-1 (hGal-1) (P09382 whole entry): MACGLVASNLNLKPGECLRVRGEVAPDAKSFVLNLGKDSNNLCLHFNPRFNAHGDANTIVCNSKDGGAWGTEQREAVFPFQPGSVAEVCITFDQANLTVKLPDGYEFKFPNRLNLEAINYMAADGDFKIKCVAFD

Molecule | pIC50 [1, 3] | pIC50 [2] | pIC50 [1, 4] | pIC50 [1, 5]
OC[C@H]1O[C@@H](SC(c2ccccc2C(F)(F)F)C2(O)CCNCC2)[C@H](O)[C@@H](n2cc(-c3cc(F)c(F)c(F)c3)nn2)[C@H]1O (stereo partly drawn) [Example 2.45.112., (2R,3R,4S,5R,6S)-2-(Hydroxymethyl)-6-(((4-hydroxypiperidin-4-yl)(2-(trifluoromethyl)phenyl)methyl)thio)-4-(4-(3,4,5-trifluorophenyl)-1H-1,2,3-triazol-1-yl)tetrahydro-2H-pyran-3,5-diol] | 6.89 | 6.34 | – | –
(2S,3R,4S,5R,6R)-2-(((R)-((S)-4-Hydroxy-2,2-dimethyltetrahydro-2H-pyran-4-yl)(o-tolyl)methyl)thio)-6-(hydroxymethyl)-4-(4-(3,4,5-trifluorophenyl)-1H-1,2,3-triazol-1-yl)tetrahydro-2H-pyran-3,5-diol [Example 2.43.112RS.] | – | 6.40 | 6.89 | –
CO[C@@H]1[C@@H](n2cc(-c3cc(F)c(F)c(F)c3)nn2)[C@@H](O)[C@@H](CO)O[C@H]1S[C@@H](c1nc(C)c(C)nc1C)C1(O)CCC(F)(F)CC1 [Example 2.44.119S.I., (2R,3R,4S,5R,6S)-6-(((S)-(4,4-Difluoro-1-hydroxycyclohexyl)(3,5,6-trimethylpyrazin-2-yl)methyl)thio)-2-(hydroxymethyl)-5-methoxy-4-(4-(3,4,5-trifluorophenyl)-1H-1,2,3-triazol-1-yl)tetrahydro-2H-pyran-3-ol] | – | 4.54 | – | 5.29
Cc1ccncc1C(S[C@@H]1O[C@H](CO)[C@H](O)[C@H](n2cc(-c3cc(F)c(F)c(F)c3)nn2)[C@H]1O)C(C)(C)O (stereo partly drawn) [Example 2.31.117., (2S,3R,4S,5R,6R)-2-((2-Hydroxy-2-methyl-1-(4-methylpyridin-3-yl)propyl)thio)-6-(hydroxymethyl)-4-(4-(3,4,5-trifluorophenyl)-1H-1,2,3-triazol-1-yl)tetrahydro-2H-pyran-3,5-diol] | 6.28 | 5.31 | – | –
CCC(O)(CC)[C@H](S[C@@H]1O[C@H](CO)[C@H](O)[C@H](n2cc(-c3cc(F)c(F)c(F)c3)nn2)[C@H]1O)c1conc1C [Example 2.32.120R., (2S,3R,4S,5R,6R)-2-(((R)-2-Ethyl-2-hydroxy-1-(3-methylisoxazol-4-yl)butyl)thio)-6-(hydroxymethyl)-4-(4-(3,4,5-trifluorophenyl)-1H-1,2,3-triazol-1-yl)tetrahydro-2H-pyran-3,5-diol] | 5.91 | 5.55 | – | –
Cc1nc(C)c([C@H](S[C@@H]2O[C@H](CO)[C@H](O)[C@H](n3cc(-c4cc(F)c(F)c(F)c4)nn3)[C@H]2O)C2(O)CCN(C)CC2)nc1C [Example 2.40.119S., (2S,3R,4S,5R,6R)-2-(((S)-(4-Hydroxy-1-methylpiperidin-4-yl)(3,5,6-trimethylpyrazin-2-yl)methyl)thio)-6-(hydroxymethyl)-4-(4-(3,4,5-trifluorophenyl)-1H-1,2,3-triazol-1-yl)tetrahydro-2H-pyran-3,5-diol] | 5.52 | 4.97 | – | –
CO[C@@H]1[C@@H](n2cc(-c3cc(F)c(F)c(F)c3)nn2)[C@@H](O)[C@@H](CO)O[C@H]1S[C@H](c1nccc(Cl)c1C)C1(O)CCC(F)(F)CC1 [Example 2.44.141R.I., (2R,3R,4S,5R,6S)-6-(((R)-(4-Chloro-3-methylpyridin-2-yl)(4,4-difluoro-1-hydroxycyclohexyl)methyl)thio)-2-(hydroxymethyl)-5-methoxy-4-(4-(3,4,5-trifluorophenyl)-1H-1,2,3-triazol-1-yl)tetrahydro-2H-pyran-3-ol] | – | 6.46 | – | 7.15
Cc1cccnc1C(S[C@@H]1O[C@H](CO)[C@H](O)[C@H](n2cc(-c3cc(F)c(F)c(F)c3)nn2)[C@H]1O)C1(O)CCC(F)(F)CC1 (stereo partly drawn) [Example 2.44.126., (2S,3R,4S,5R,6R)-2-(((4,4-Difluoro-1-hydroxycyclohexyl)(3-methylpyridin-2-yl)methyl)thio)-6-(hydroxymethyl)-4-(4-(3,4,5-trifluorophenyl)-1H-1,2,3-triazol-1-yl)tetrahydro-2H-pyran-3,5-diol] | 7.22 | 7.22 | – | –
Cc1nc(C(S[C@@H]2O[C@H](CO)[C@H](O)[C@H](n3cc(-c4cc(F)c(F)c(F)c4)nn3)[C@H]2O)C(C)(C)O)c(C)o1 (stereo partly drawn) [Example 2.31.122., (2S,3R,4S,5R,6R)-2-((1-(2,5-Dimethyloxazol-4-yl)-2-hydroxy-2-methylpropyl)thio)-6-(hydroxymethyl)-4-(4-(3,4,5-trifluorophenyl)-1H-1,2,3-triazol-1-yl)tetrahydro-2H-pyran-3,5-diol] | 6.06 | 5.67 | – | –
CO[C@@H]1[C@@H](n2cc(-c3cc(F)c(F)c(F)c3)nn2)[C@@H](O)[C@@H](CO)O[C@H]1S[C@H](c1nc(C)c(C)nc1C)C1(O)CCC(F)(F)CC1 [Example 2.44.119R.I., (2R,3R,4S,5R,6S)-6-(((R)-(4,4-Difluoro-1-hydroxycyclohexyl)(3,5,6-trimethylpyrazin-2-yl)methyl)thio)-2-(hydroxymethyl)-5-methoxy-4-(4-(3,4,5-trifluorophenyl)-1H-1,2,3-triazol-1-yl)tetrahydro-2H-pyran-3-ol] | – | 6.35 | – | 7.05
Cc1conc1[C@H](S[C@@H]1O[C@H](CO)[C@H](O)[C@H](n2cc(-c3cc(F)c(F)c(F)c3)nn2)[C@H]1O)C1(O)CCC(F)(F)CC1 [Example 2.44.120S., (2S,3R,4S,5R,6R)-2-(((S)-(4,4-Difluoro-1-hydroxycyclohexyl)(4-methylisoxazol-3-yl)methyl)thio)-6-(hydroxymethyl)-4-(4-(3,4,5-trifluorophenyl)-1H-1,2,3-triazol-1-yl)tetrahydro-2H-pyran-3,5-diol] | – | 4.65 | 5.08 | –
Cc1nc(C)c([C@@H](S[C@@H]2O[C@H](CO)[C@H](O)[C@H](n3cc(-c4cc(F)c(F)c(F)c4)nn3)[C@H]2O)C2(O)CCCCC2)nc1C [Example 2.39.119R., (2S,3R,4S,5R,6R)-2-(((R)-(1-Hydroxycyclohexyl) (3,5,6-trimethylpyrazin-2-yl)methyl)thio)-6-(hydroxymethyl)-4-(4-(3,4,5-trifluorophenyl)-1H-1,2,3-triazol-1-yl)tetrahydro-2H-pyran-3,5-diol] | – | 6.14 | 7.15 | –
CO[C@@H]1[C@@H](n2cc(-c3cc(F)c(F)c(F)c3)nn2)[C@@H](O)[C@@H](CO)O[C@H]1S[C@@H](c1nccc(Cl)c1Cl)C1(O)CCC(F)(F)CC1 (single isomer, unassigned) [Example 2.44.143R.I.] | – | 6.07 | – | 7.15
CC(C)(O)[C@H](S[C@@H]1O[C@H](CO)[C@H](O)[C@H](n2cc(-c3cc(F)c(F)c(F)c3)nn2)[C@H]1O)c1ccccc1C1CC1 [Example 2.31.106R., (2S,3R,4S,5R,6R)-2-(((R)-1-(2-cyclopropylphenyl)-2-hydroxy-2-methylpropyl)thio)-6-(hydroxymethyl)-4-(4-(3,4,5-trifluorophenyl)-1H-1,2,3-triazol-1-yl)tetrahydro-2H-pyran-3,5-diol] | 6.85 | 6.68 | – | –
OC[C@H]1O[C@@H](S[C@H](c2ncccc2C(F)(F)F)C2(O)CCCC2)[C@H](O)[C@@H](n2cc(-c3cc(F)c(F)c(F)c3)nn2)[C@H]1O [Example 2.38.125R., (2S,3R,4S,5R,6R)-2-(((R)-(1-Hydroxycyclopentyl)(3-(trifluoromethyl)pyridin-2-yl)methyl)thio)-6-(hydroxymethyl)-4-(4-(3,4,5-trifluorophenyl)-1H-1,2,3-triazol-1-yl)tetrahydro-2H-pyran-3,5-diol] | 7.10 | 6.32 | – | –
O=C(NC1CC1)N1CCC(O)([C@@H](S[C@@H]2O[C@H](CO)[C@H](O)[C@H](n3cc(-c4cc(F)c(F)c(F)c4)nn3)[C@H]2O)c2ccccc2C(F)(F)F)CC1 [Example 2.49.112S., N-Cyclopropyl-4-((S)-(((2S,3R,4S,5R,6R)-3,5-dihydroxy-6-(hydroxymethyl)-4-(4-(3,4,5-trifluorophenyl)-1H-1,2,3-triazol-1-yl)tetrahydro-2H-pyran-2-yl)thio)(2-(trifluoromethyl)phenyl)methyl)-4-hydroxypiperidine-1-carboxamide] | 5.51 | 4.92 | – | –
CN1CCC(O)(C(S[C@@H]2O[C@H](CO)[C@H](O)[C@H](n3cc(-c4cc(F)c(F)c(F)c4)nn3)[C@H]2O)c2ncccc2C(F)(F)F)CC1 (stereo partly drawn) [Example 2.40.125., (2S,3R,4S,5R,6R)-2-(((4-Hydroxy-1-methylpiperidin-4-yl)(3-(trifluoromethyl)pyridin-2-yl)methyl)thio)-6-(hydroxymethyl)-4-(4-(3,4,5-trifluorophenyl)-1H-1,2,3-triazol-1-yl)tetrahydro-2H-pyran-3,5-diol] | – | 6.28 | 6.70 | –
OC[C@H]1O[C@@H](S[C@@H](c2ncccc2C(F)(F)F)C2(O)CCOCC2)[C@H](O)[C@@H](n2cc(-c3cc(F)c(F)c(F)c3)nn2)[C@H]1O [Example 2.41.125S., (2R,3R,4S,5R,6S)-2-(Hydroxymethyl)-6-(((S)-(4-hydroxytetrahydro-2H-pyran-4-yl)(3-(trifluoromethyl)pyridin-2-yl)methyl)thio)-4-(4-(3,4,5-trifluorophenyl)-1H-1,2,3-triazol-1-yl)tetrahydro-2H-pyran-3,5-diol] | – | 5.13 | 5.74 | –
